Test results: patent US20260217673A1, “NOVEL COMPOUND AS RON INHIBITOR” (LG CHEM, LTD., priority 2022, published 2026)

What was measured:
RON = RON (Homo sapiens, UniProt Q04912); experiment: RON inhibitory activity, TR-FRET kinase assay; type: biochemical; settings: RON protein, ULight-labeled Poly GT substrate
How it was run: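 RON was preincubated with compound for 20-30 min at room temperature in HEPES buffer (pH 7.4) with MgCl2 and DTT. Phosphorylation of ULight-Poly GT with ATP ran 60 min before EDTA stop. Europium anti-phosphotyrosine TR-FRET (ex 340, em 620/665 nm) was read and IC50 derived from 10-point 3-fold dilutions.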

cMET = cMET (Homo sapiens, UniProt P08581); experiment: MET (cMET) enzyme inhibitory activity, TR-FRET kinase assay; type: biochemical; settings: cMET protein, TK peptide substrate
How it was run: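 cMET diluted to 2 nM was preincubated 20–30 min at room temperature with compound (10-point 3-fold series from 1 mM DMSO stock). The reaction was started with TK peptide/ATP substrate mix prepared at 2× final (5 μM peptide, 10 mM ATP), run 60 min at room temperature in HEPES pH 7.4 buffer with MnCl2/MgCl2, then EDTA-stopped. Europium anti-phosphotyrosine TR-FRET (ex 340, em 620/665 nm) gave IC50.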

cMET, sequence (P08581 25-1390): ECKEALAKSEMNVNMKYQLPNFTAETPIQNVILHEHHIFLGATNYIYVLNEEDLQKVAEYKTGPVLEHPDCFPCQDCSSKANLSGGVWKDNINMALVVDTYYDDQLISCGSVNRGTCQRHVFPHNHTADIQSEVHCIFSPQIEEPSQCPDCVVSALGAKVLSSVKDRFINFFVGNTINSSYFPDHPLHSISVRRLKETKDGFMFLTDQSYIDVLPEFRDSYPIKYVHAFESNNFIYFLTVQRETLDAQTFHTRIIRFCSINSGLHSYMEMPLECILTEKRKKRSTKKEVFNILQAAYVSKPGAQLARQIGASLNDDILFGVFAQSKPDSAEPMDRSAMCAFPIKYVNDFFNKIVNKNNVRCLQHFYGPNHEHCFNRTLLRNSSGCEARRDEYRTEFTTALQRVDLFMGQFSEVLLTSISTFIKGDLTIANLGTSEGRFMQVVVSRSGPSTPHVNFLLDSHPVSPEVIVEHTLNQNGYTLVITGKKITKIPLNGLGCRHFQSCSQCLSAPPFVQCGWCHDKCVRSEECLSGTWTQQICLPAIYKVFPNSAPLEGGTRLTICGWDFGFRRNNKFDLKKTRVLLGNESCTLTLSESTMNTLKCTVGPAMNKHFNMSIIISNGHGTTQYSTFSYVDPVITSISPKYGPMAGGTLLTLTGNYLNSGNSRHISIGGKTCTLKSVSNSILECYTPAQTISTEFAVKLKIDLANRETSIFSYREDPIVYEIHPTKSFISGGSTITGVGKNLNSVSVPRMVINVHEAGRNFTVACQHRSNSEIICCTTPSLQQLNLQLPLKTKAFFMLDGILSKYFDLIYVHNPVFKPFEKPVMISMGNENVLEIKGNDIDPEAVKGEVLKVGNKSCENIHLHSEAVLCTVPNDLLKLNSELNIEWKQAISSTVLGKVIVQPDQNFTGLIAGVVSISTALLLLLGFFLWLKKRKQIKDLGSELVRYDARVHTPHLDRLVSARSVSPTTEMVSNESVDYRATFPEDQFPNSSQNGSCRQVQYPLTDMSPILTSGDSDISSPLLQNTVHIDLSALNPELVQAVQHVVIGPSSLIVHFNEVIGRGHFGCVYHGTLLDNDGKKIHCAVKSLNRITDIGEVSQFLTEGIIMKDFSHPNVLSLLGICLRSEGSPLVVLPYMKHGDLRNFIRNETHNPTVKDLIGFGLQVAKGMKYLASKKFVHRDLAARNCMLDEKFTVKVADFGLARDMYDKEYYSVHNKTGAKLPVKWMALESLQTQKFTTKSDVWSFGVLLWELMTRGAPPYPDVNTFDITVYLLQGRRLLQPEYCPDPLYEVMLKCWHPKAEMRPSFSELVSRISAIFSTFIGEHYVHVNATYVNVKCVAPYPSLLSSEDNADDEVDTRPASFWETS
RON, sequence (Q04912 25-1400, species assumed): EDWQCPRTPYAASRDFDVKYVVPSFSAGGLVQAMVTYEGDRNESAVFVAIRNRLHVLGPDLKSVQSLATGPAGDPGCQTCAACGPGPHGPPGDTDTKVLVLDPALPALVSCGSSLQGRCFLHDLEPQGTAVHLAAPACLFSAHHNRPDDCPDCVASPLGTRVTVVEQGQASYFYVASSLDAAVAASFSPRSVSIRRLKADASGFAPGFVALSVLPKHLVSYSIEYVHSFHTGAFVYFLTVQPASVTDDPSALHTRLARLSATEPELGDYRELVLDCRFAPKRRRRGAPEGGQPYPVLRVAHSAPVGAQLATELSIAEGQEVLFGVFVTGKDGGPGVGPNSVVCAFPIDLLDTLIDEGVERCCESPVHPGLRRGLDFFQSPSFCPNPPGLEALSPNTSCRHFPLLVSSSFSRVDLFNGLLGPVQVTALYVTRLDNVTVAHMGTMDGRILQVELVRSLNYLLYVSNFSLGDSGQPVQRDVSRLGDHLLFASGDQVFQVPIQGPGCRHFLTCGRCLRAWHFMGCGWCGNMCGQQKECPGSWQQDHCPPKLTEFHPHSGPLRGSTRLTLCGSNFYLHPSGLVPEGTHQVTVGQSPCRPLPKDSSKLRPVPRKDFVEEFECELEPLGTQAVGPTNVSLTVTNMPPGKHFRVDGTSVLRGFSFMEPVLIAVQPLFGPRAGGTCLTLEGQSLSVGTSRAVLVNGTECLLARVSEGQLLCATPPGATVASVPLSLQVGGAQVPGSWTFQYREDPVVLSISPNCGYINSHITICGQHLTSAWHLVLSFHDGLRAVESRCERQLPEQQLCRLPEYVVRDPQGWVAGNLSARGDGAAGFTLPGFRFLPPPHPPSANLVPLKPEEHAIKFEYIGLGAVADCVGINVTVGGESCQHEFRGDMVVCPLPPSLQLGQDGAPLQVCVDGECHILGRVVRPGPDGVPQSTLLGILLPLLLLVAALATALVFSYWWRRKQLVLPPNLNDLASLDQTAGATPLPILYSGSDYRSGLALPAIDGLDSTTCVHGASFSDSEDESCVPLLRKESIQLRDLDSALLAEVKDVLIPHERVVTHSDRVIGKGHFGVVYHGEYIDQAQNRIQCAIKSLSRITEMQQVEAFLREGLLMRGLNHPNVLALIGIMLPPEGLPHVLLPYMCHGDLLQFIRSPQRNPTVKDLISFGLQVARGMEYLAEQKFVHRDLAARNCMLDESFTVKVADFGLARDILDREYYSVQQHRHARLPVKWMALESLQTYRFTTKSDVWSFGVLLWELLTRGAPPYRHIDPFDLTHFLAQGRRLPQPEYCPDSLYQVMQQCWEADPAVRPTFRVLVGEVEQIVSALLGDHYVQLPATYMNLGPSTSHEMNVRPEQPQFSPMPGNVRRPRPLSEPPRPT

Row | IC50 (RON) | IC50 (cMET) | Compound
1 | < 50 nM | 50 to 500 nM | Nc1nccc(Oc2c(F)cc(NC(=O)c3cnn(-c4ccccn4)c3C(F)(F)F)cc2F)c1C#CCO [Example 52, N-(4-((2-amino-3-(3-hydroxyprop-1-yn-1-yl)pyridin-4-yl)oxy)-3,5-difluorophenyl)-1-(pyridin-2-yl)-5-(trifluoromethyl)-1H-pyrazole-4-carboxamide]
2 | < 50 nM | 50 to 500 nM | Nc1nccc(Oc2c(F)cc(NC(=O)c3cnn(-c4ncccc4Cl)c3C(F)(F)F)cc2F)c1C#CCO [Example 54, N-(4-((2-amino-3-(3-hydroxyprop-1-yn-1-yl)pyridin-4-yl)oxy)-3,5-difluorophenyl)-1-(3-chloropyridin-2-yl)-5-(trifluoromethyl)-1H-pyrazole-4-carboxamide]
3 | < 50 nM | 50 to 500 nM | Nc1nccc(Oc2c(F)cc(NC(=O)c3cnn(-c4cccnn4)c3C(F)(F)F)cc2F)c1C#CCO [Example 56, N-(4-((2-amino-3-(3-hydroxyprop-1-yn-1-yl)pyridin-4-yl)oxy)-3,5-difluorophenyl)-1-(pyridazin-3-yl)-5-(trifluoromethyl)-1H-pyrazole-4-carboxamide]
4 | < 50 nM | 50 to 500 nM | CC(O)C#Cc1c(Oc2c(F)cc(NC(=O)c3cnn(-c4ncccc4F)c3C(F)(F)F)cc2F)ccnc1N (stereo not shown) [Example 57, N-(4-((2-amino-3-(3-hydroxybut-1-yn-1-yl)pyridin-4-yl)oxy)-3,5-difluorophenyl)-1-(3-fluoropyridin-2-yl)-5-(trifluoromethyl)-1H-pyrazole-4-carboxamide]
5 | < 50 nM | 50 to 500 nM | CC(C)(O)C#Cc1c(Oc2c(F)cc(NC(=O)c3cnn(-c4ncccc4F)c3C(F)(F)F)cc2F)ccnc1N [Example 58, N-(4-((2-amino-3-(3-hydroxy-3-methylbut-1-yn-1-yl)pyridin-4-yl)oxy)-3,5-difluorophenyl)-1-(3-fluoropyridin-2-yl)-5-(trifluoromethyl)-1H-pyrazole-4-carboxamide]

The next lines start with the molecule.

Row | Compound | IC50 (RON) | IC50 (cMET)
6 | Nc1nccc(Oc2c(F)cc(NC(=O)c3cnn(-c4ccccc4)c3C(F)(F)F)cc2F)c1C#CCO [Example 51, N-(4-((2-amino-3-(3-hydroxyprop-1-yn-1-yl)pyridin-4-yl)oxy)-3,5-difluorophenyl)-1-phenyl-5-(trifluoromethyl)-1H-pyrazole-4-carboxamide] | < 50 nM | 500 to 5000 nM
7 | Nc1nccc(Oc2c(F)cc(NC(=O)c3cnn(-c4ncccc4F)c3C(F)(F)F)cc2F)c1C#CCO [Example 53, N-(4-((2-amino-3-(3-hydroxyprop-1-yn-1-yl)pyridin-4-yl)oxy)-3,5-difluorophenyl)-1-(3-fluoropyridin-2-yl)-5-(trifluoromethyl)-1H-pyrazole-4-carboxamide] | < 50 nM | 50 to 500 nM
8 | Nc1nccc(Oc2c(F)cc(NC(=O)c3cnn(-c4ncccn4)c3C(F)(F)F)cc2F)c1C#CCO [Example 55, N-(4-((2-amino-3-(3-hydroxyprop-1-yn-1-yl)pyridin-4-yl)oxy)-3,5-difluorophenyl)-1-(pyrimidin-2-yl)-5-(trifluoromethyl)-1H-pyrazole-4-carboxamide] | < 50 nM | 50 to 500 nM
9 | COCCCN1CCC(n2ncc(C(=O)Nc3cc(F)c(Oc4ccnc(N)c4Cl)c(F)c3)c2C(F)(F)F)CC1 [Example 59, N-(4-((2-amino-3-chloropyridin-4-yl)oxy)-3,5-difluorophenyl)-1-(1-(3-methoxypropyl)piperidin-4-yl)-5-(trifluoromethyl)-1H-pyrazole-4-carboxamide] | 500 to 5000 nM | > 5000 nM
10 | CCOCC(=O)N1CCC(n2ncc(C(=O)Nc3cc(F)c(Oc4ccnc(N)c4Cl)c(F)c3)c2C(F)(F)F)CC1 [Example 60, N-(4-((2-amino-3-chloropyridin-4-yl)oxy)-3,5-difluorophenyl)-1-(1-(2-ethoxyacetyl)piperidin-4-yl)-5-(trifluoromethyl)-1H-pyrazole-4-carboxamide] | 500 to 5000 nM | 500 to 5000 nM
11 | COCCCn1ncc(C(=O)Nc2cc(F)c(Oc3ccnc(N)c3Cl)c(F)c2)c1C(F)(F)F [Example 61, N-[4-[(2-amino-3-chloro-4-pyridyl)oxy]-3,5-difluoro-phenyl]-1-(3-methoxypropyl)-5-(trifluoromethyl)pyrazole-4-carboxamide] | 50 to 500 nM | 500 to 5000 nM
